Data on eight compounds can be found in US20240417393A1, “CERTAIN 2,5-DIAZABICYCLO[4.2.0]OCTANES AS GLP-1 RECEPTOR MODULATORS” (ASTRAZENECA AB, priority 2021, published 2024).

SMILES strings stand for the structures.

For one assay, the target named is T1, human GLP-1R receptor (Homo sapiens, UniProt P43220, L260F).
T1 construct: expressed in transfected cells; host or cells: CHO-K1 (ATCC CCL-61)
Briefly: CHOK1 GLP-1R cAMP Assay (HTRF). The format is cell-based. The settings on record: CHO-K1 cells stably expressing human GLP-1R (Leu260Phe variant), 20 min at rt. On the technique in general: Time-resolved FRET reads energy transfer from a long-lived donor to a nearby acceptor.

Assay [1] deals with T2, GLP-1R in a pancreatic insulinoma cell line (EndoC-PH1) (Homo sapiens, UniProt P43220).
T2 construct: host or cells: EndoC-βH1 human pancreatic beta cell line
T2 sequence (P43220 24-463): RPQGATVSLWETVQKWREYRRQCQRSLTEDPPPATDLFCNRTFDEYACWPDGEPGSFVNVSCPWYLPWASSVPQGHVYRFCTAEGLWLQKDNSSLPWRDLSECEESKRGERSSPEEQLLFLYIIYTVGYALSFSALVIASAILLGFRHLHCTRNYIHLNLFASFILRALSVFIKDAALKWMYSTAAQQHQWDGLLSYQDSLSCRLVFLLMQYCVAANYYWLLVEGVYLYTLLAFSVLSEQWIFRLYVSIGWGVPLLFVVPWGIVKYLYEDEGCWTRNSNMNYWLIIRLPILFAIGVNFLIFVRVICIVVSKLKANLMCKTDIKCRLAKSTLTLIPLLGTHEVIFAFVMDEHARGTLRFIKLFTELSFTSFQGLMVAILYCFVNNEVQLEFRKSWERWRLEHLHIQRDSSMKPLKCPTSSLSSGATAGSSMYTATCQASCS
Nature of the assay: EndoC cAMP Accumulation Assay (HTRF). The format is cell-based. Particulars: EndoC-PH1 human pancreatic beta cell line, endogenous GLP-1R, 30 min at rt. Summed up:
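Thawed human EndoC-βH1 cells, about 3000 per well, stimulated with compound 30 min at room temperature in HBSS/HEPES pH 7.4 with 0.1% BSA and 0.5 mM IBMX; cAMP by competitive HTRF. Responses as % activation relative to maximal GIP (82.5 nM), 4-parameter logistic fit.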

The target in assay [2] is T3, human phosphodiesterase-3A (Homo sapiens, UniProt Q14432).
T3 construct: host or cells: Sf9 (Spodoptera frugiperda) cells
T3 sequence (Q14432 whole entry): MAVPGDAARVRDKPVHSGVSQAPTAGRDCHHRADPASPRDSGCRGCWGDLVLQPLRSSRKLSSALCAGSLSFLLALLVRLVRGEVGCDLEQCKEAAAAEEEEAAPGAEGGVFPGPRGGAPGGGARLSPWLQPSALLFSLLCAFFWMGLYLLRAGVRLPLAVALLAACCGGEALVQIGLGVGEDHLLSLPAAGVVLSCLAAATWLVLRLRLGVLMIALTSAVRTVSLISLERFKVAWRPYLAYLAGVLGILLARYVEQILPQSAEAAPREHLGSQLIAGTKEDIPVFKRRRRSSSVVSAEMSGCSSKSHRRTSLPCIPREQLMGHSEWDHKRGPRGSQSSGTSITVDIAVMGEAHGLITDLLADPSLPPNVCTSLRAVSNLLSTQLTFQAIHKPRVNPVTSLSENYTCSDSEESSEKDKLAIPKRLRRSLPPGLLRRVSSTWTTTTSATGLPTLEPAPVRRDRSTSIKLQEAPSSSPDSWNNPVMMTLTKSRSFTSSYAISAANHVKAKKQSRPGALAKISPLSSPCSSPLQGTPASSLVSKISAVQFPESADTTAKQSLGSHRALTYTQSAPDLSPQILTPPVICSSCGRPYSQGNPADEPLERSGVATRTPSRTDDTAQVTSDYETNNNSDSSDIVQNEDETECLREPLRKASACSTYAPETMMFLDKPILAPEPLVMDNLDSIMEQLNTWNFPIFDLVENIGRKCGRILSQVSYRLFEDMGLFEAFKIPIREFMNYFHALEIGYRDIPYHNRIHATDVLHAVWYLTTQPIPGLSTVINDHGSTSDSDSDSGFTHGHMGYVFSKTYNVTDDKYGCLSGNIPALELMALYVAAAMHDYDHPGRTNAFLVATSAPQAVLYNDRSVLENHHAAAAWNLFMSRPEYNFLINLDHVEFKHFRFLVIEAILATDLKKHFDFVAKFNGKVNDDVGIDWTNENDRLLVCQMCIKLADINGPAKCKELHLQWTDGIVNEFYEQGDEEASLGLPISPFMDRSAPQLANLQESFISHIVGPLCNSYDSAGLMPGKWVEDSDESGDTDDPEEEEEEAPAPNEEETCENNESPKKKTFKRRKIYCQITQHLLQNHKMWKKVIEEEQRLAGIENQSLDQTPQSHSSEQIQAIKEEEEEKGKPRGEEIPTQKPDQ
Briefly: PDE3 Assay ([3H]cAMP to 5'AMP, SPA). Type of assay: biochemical. The settings on record: human recombinant PDE3A expressed in Sf9 cells; 450 nM cAMP; 20 min at 22° C. As for the experimental part:
Evaluation of the effects of compounds on the activity of the human phosphodiesterase-3A is quantified by measuring the formation of 5′AMP from cAMP using a human recombinant is enzyme expressed in a clonal isolate of Spodoptera frugiperda cells (Sf9) cells.
The test compound, reference compound or water (control) are added to a buffer containing 40 mM tris(hydroxymethyl)aminomethane (Tris)/HCl (pH 7.4) and 8 mM MgCl2, 450 nMcAMP and 0.25 μCi [^3H]cAMP.
Thereafter, the reaction is initiated by addition of the enzyme (about 1U) and the mixture is incubated for 20 min at 22° C.
For basal control measurements, the enzyme is omitted from the reaction mixture.
Following incubation SPA beads are added. After 30 min at 22° C. under shaking, the amount of [^3H]5′AMP is quantified with a scintillation counter (Topcount, Packard).
The results are expressed as a percent inhibition of the control enzyme activity. The standard inhibitory reference compound is milrinone (CAS number 78415-72-2), which is tested in each experiment at several concentrations to obtain an inhibition curve from which its IC50 value is calculated.

T1 sequence (P43220 24-463 L260F): as the sequence (P43220 24-463) above, with L237F counted along it

What is called EC50 is the concentration needed to bring the measured effect to its halfway point. Higher therefore signals a less potent agent. Usually IC50 stands for the concentration at which inhibition is half-maximal. In the case of `C[C@]1(c2ccc(Cl)cn2)Oc2cccc(N3CCN(Cc4nc5c(F)cc(C(=O)O)cc5n4C[C@@H]4CCO4)[C@H]4CC[C@H]43)c2O1` (single isomer, unassigned) [Example 1b, 2-(((1R*,6S*)-5-((R*)-2-(5-Chloropyridin-2-yl)-2-methylbenzo[d][1,3]dioxol-4-yl)-2,5-diazabicyclo[4.2.0]octan-2-yl)methyl)-4-fluoro-1-(((S)-oxetan-2-yl)methyl)-1H-benzo[d]imidazole-6-carboxylic acid], the figures for the EC50 (at human GLP-1R receptor; in assay [1]) were 1.2 nM and 2.9 nM, respectively. For the same compound, the IC50 in assay [2] was more than 87000 nM.
Taken in the same sequence, the figures for `COc1cc(C(=O)O)cc2c1nc(CN1CCN(c3cccc4c3O[C@@](C)(c3ccc(Cl)cn3)O4)[C@H]3CC[C@@H]31)n2C[C@@H]1CCCO1` (single isomer, unassigned) [Example 7b, 2-(((1R*,6R*)-5-((R*)-2-(5-Chloropyridin-2-yl)-2-methylbenzo[d][1,3]dioxol-4-yl)-2,5-diazabicyclo[4.2.0]octan-2-yl)methyl)-4-methoxy-1-(((S)-tetrahydrofuran-2-yl)methyl)-1H-benzo[d]imidazole-6-carboxylic acid] were 2.5 nM, 6.1 nM and more than 100000 nM.
Turning to `COc1cc(C(=O)O)cc2c1nc(CN1CCN(c3cccc4c3O[C@@](C)(c3ccc(Cl)cn3)O4)[C@@H]3CC[C@@H]31)n2C[C@@H]1CCCO1` (single isomer, unassigned) [Example 8c], the EC50 at human GLP-1R receptor stood at 1.6 nM; in assay [1] it was 2.6 nM. Moreover, the IC50 in assay [2] is more than 100000 nM.
As for `C[C@]1(c2ccc(Cl)cn2)Oc2cccc(N3CCN(Cc4nc5ccc(C(=O)O)cc5n4C[C@@H]4CCO4)[C@H]4CC[C@H]43)c2O1` (single isomer, unassigned) [Example 5a, 2-((1R*,6S*)-5-(R*)-2-(5-Chloropyridin-2-yl)-2-methylbenzo[d][1,3]dioxol-4-yl)-2,5-diazabicyclo[4.2.0]octan-2-yl)methyl)-1-(((S)-oxetan-2-yl)methyl)-1H-benzo[d]imidazole-6-carboxylic acid], the EC50 on human GLP-1R receptor amounted to 1.9 nM; in assay [1], 6.5 nM. Moreover, the IC50 in assay [2] is more than 100000 nM.
Taken in the same sequence, the figures for `C[C@]1(c2ccc(Cl)cn2)Oc2cccc(N3CCN(Cc4nc5c(F)cc(C(=O)O)cc5n4C[C@@H]4CCO4)[C@H]4CC[C@H]43)c2O1` (single isomer, unassigned) [Example 1c, 2-((1R*,6S*)-5-(R*)-2-(5-Chloropyridin-2-yl)-2-methylbenzo[d][1,3]dioxol-4-yl)-2,5-diazabicyclo[4.2.0]octan-2-yl)methyl)-4-fluoro-1-(((S)-oxetan-2-yl)methyl)-1H-benzo[d]imidazole-6-carboxylic acid] were 2.2 nM, 3.2 nM and more than 100000 nM.
On the same counts, the results for `C[C@]1(c2ccc(Cl)cn2)Oc2cccc(N3CCN(Cc4nc5c(Cl)cc(C(=O)O)cc5n4C[C@@H]4CCO4)[C@@H]4CC[C@H]43)c2O1` (single isomer, unassigned) [Example 3b] are 0.9 nM, 2.6 nM and more than 100000 nM.
Taken in the same sequence, the figures for `CCn1ccnc1Cn1c(CN2CCN(c3cccc4c3O[C@@](C)(c3ccc(Cl)cn3)O4)[C@H]3CC[C@@H]32)nc2c(Cl)cc(C(=O)O)cc21` (single isomer, unassigned) [Example 10a] were 0.9 nM, 3.5 nM and more than 100000 nM.
On to `C[C@]1(c2ccc(Cl)cn2)Oc2cccc(N3CCN(Cc4nc5c(Cl)cc(C(=O)O)cc5n4C[C@@H]4CCO4)[C@H]4CC[C@@H]43)c2O1` (single isomer, unassigned) [Example 3c, 4-Chloro-2-(((1R*,6R*)-5-((R*)-2-(5-chloropyridin-2-yl)-2-methylbenzo[d][1,3]dioxol-4-yl)-2,5-diazabicyclo[4.2.0]octan-2-yl)methyl)-1-(((S)-oxetan-2-yl)methyl)-1H-benzo[d]imidazole-6-carboxylic acid], for which the EC50 at human GLP-1R receptor is 11 nM; in assay [1], 8.8 nM. The half-maximal inhibitory concentration (IC50) in assay [2] was more than 100000 nM.
